Experimental data from patent US7211588B2, “N-substituted indolyl-3-glyoxylamides, their use as medicaments and process for their preparation” (Zentaris GmbH, priority 2003, dated 2007).
Values after ≈ are worked out from the molar mass of the structure shown.

Legend:
[1] = test system: human glioblastoma cell line SF-268 (NCl 503138); experiment: XTT proliferation/cytotoxicity test, SF-268; type: cell-based; settings: SF-268 cells
Excerpt: (§1) Substance 1 was investigated for its antiproliferative action in a proliferation test using established tumor cell (D. A. Scuderio et al. Cancer Res. 1988, 48, 4827–4833). The test used determines the cellular dehydrogenase activity and permits a determination of the cell vitality and, indirectly, of the cell count. The cell lines used are the human cervical carcinoma cell line KB/HeLa (ATCC CCL17), the ovarial adeno carcinoma cell line SKOV-3 (ATCC HTB77), the human glioblastoma cell line SF-268 (NCl 503138) and the pulmonary carcinoma cell line NCl-H460 (NCl 503473).

[2] = test system: ovarial adeno carcinoma cell line SKOV-3 (ATCC HTB77); experiment: XTT proliferation/cytotoxicity test, SK-OV-3; type: cell-based; settings: Homo sapiens, SK-OV-3 cells
Excerpt: as §1

[3] = test system: murine cell line L1210; experiment: XTT proliferation test, L1210; type: cell-based; settings: Mus musculus, L1210 wild-type cells
Excerpt: as §1, with “503473). Substance 1 was further characterized by testing with regard to multidrug-resistant cell lines as compared with the nonresistant wild-type cell lines. The cell lines tested are the murine cell line L1210, the acute myeloid leukemia cell line LT12 and the resistant lines L1210/mdr and LT12/mdr. Further test systems used are the murine P388 cell line (methylcholanthrene-induced lymphoid neoplasm) and the doxorubicin-resistant P388 cell line.” for “503473).”

[4] = test system: human cervical carcinoma cell line KB/HeLa (ATCC CCL17); experiment: XTT proliferation/cytotoxicity test, KB/HeLa; type: cell-based; settings: KB/HeLa cells
Excerpt: as §1

[5] = test system: resistant line L1210/mdr (L1210VCR); experiment: XTT proliferation test, L1210VCR; type: cell-based, murine; settings: Mus musculus, resistant L1210VCR cells
Excerpt: as §1, with “503473). Substance 1 was further characterized by testing with regard to multidrug-resistant cell lines as compared with the nonresistant wild-type cell lines. The cell lines tested are the murine cell line L1210, the acute myeloid leukemia cell line LT12 and the resistant lines L1210/mdr and LT12/mdr. Further test systems used are the murine P388 cell line (methylcholanthrene-induced lymphoid neoplasm) and the doxorubicin-resistant P388 cell line.” for “503473).”

[6] = test system: pulmonary carcinoma cell line NCl-H460 (NCl 503473); experiment: XTT proliferation/cytotoxicity test, NCI-H460; type: cell-based; settings: Homo sapiens, NCI-H460 cells
Excerpt: as §1

[7] = test system: doxorubicin-resistant P388 cell line; experiment: XTT proliferation test, P388ADR; type: cell-based, murine; settings: Mus musculus, doxorubicin-resistant P388ADR cells
Excerpt: as §1, with “503473). Substance 1 was further characterized by testing with regard to multidrug-resistant cell lines as compared with the nonresistant wild-type cell lines. The cell lines tested are the murine cell line L1210, the acute myeloid leukemia cell line LT12 and the resistant lines L1210/mdr and LT12/mdr. Further test systems used are the murine P388 cell line (methylcholanthrene-induced lymphoid neoplasm) and the doxorubicin-resistant P388 cell line.” for “503473).”

[8] = test system: murine P388 cell line (methylcholanthrene-induced lymphoid neoplasm); experiment: XTT proliferation test, P388; type: cell-based; settings: Mus musculus, P388 wild-type cells
Excerpt: as §1, with “503473). Substance 1 was further characterized by testing with regard to multidrug-resistant cell lines as compared with the nonresistant wild-type cell lines. The cell lines tested are the murine cell line L1210, the acute myeloid leukemia cell line LT12 and the resistant lines L1210/mdr and LT12/mdr. Further test systems used are the murine P388 cell line (methylcholanthrene-induced lymphoid neoplasm) and the doxorubicin-resistant P388 cell line.” for “503473).”

[9] = test system: resistant line LT12/mdr; experiment: XTT proliferation test, LT12mdr; type: cell-based; settings: Rattus norvegicus, multidrug-resistant LT12mdr cells
Excerpt: as §1, with “503473). Substance 1 was further characterized by testing with regard to multidrug-resistant cell lines as compared with the nonresistant wild-type cell lines. The cell lines tested are the murine cell line L1210, the acute myeloid leukemia cell line LT12 and the resistant lines L1210/mdr and LT12/mdr. Further test systems used are the murine P388 cell line (methylcholanthrene-induced lymphoid neoplasm) and the doxorubicin-resistant P388 cell line.” for “503473).”

[10] = test system: acute myeloid leukemia cell line LT12; experiment: XTT proliferation test, LT12; type: cell-based; settings: Rattus norvegicus, LT12 wild-type cells
Excerpt: as §1, with “503473). Substance 1 was further characterized by testing with regard to multidrug-resistant cell lines as compared with the nonresistant wild-type cell lines. The cell lines tested are the murine cell line L1210, the acute myeloid leukemia cell line LT12 and the resistant lines L1210/mdr and LT12/mdr. Further test systems used are the murine P388 cell line (methylcholanthrene-induced lymphoid neoplasm) and the doxorubicin-resistant P388 cell line.” for “503473).”

## O=C(C(=O)N(C(=O)c1ccccc1)c1ccc2ncccc2c1)c1cn(Cc2ccc(Cl)cc2)c2ccccc12 [Compound 1, N-{2-[1-(4-Chlorobenzyl)-1H-indol-3-yl]-2-oxoacetyl}-N-quinolin-6-ylbenzamide]
[1]
  IC50: 0.261 µg/mL (≈ 0.48 µM)
[2]
  IC50: 0.139 µg/mL (≈ 0.256 µM)
[3]
  IC50: 0.255 µg/mL (≈ 0.469 µM)
other
  melting point: 213 °C
[4]
  IC50: 0.17 µg/mL (≈ 0.312 µM)
[5]
  IC50: 0.577 µg/mL (≈ 1.06 µM)
[6]
  IC50: 0.222 µg/mL (≈ 0.408 µM)
[7]
  IC50: 0.252 µg/mL (≈ 0.463 µM)
[8]
  IC50: 0.219 µg/mL (≈ 0.403 µM)
[9]
  IC50: 0.277 µg/mL (≈ 0.509 µM)
[10]
  IC50: 0.226 µg/mL (≈ 0.415 µM)
